Patent US20260167623A1 (NIKANG THERAPEUTICS, INC., priority 2022, published 2026)

Target: T1, CDK2 (Homo sapiens, UniProt P24941)
T1 construct: High-Throughput Measurement of Cellular Endogenous CDK2; endogenous in cells; host or cells: OVCAR3
Experiment: Inhibition of CDK2: phospho-Rb (S807/811) HTRF measurement in OVCAR3 cells, 24 h
Assay type: cell-based
Conditions: 24 h compound treatment, read-out: pRB_OVCAR3_24h
Outline: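 IC50 came from a four-parameter fit of DMSO-normalized TR-FRET ratios (665/620 nm) reporting phospho-Rb S807/811. Lysates were taken from OVCAR3 cultures treated 24 h with compound (0.3 to 10,000 nM) and incubated 4 h at room temperature with the antibody pair.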

Row | Structure (SMILES) | IC50
1 | O=C1CCC(N2Cc3cc(N4CCN(Cc5cccc(S(=O)(=O)N6CCC(Nc7ncc(Cl)cn7)CC6)c5)CC4)c(F)cc3C2=O)C(=O)N1 (stereo not drawn) [Example 34, 3-(5-(4-(3-((4-((5-chloropyrimidin-2-yl)amino)piperidin-1-yl)sulfonyl)benzyl)-piperazin-1-yl)-6-fluoro-1-oxoisoindolin-2-yl)piperidine-2,6-dione] | 100 to 500 nM
2 | Cn1c(=O)n(C2CCC(=O)NC2=O)c2cccc(C3CCN(CC4CCN(c5cccc(S(=O)(=O)N6CCC(Nc7ncc(OC(F)F)cn7)CC6)c5)CC4)CC3)c21 (stereo not drawn) [Example 121, 3-(4-(1-((1-(3-((4-((5-(difluoromethoxy)-pyrimidin-2-yl)amino)piperidin-1-yl)sulfonyl)phenyl)piperidin-4-yl)methyl)-piperidin-4-yl)-3-methyl-2-oxo-2,3-dihydro-1H-benzo[d]imidazol-1-yl)piperidine-2,6-dione] | 1 to 100 nM
3 | O=C1CCC(Nc2ccc(N3CCN(Cc4cccc(S(=O)(=O)N5CCC(Nc6ncc(C(F)(F)F)cn6)CC5)c4)CC3)cc2)C(=O)N1 (stereo not drawn) [Example 78, 3-((4-(4-(3-((4-((5-(trifluoromethyl)-pyrimidin-2-yl)amino)piperidin-1-yl)sulfonyl)benzyl)piperazin-1-yl)phenyl)amino) piperidine-2,6-dione] | 100 to 500 nM
4 | O=C1CCN(c2nn(CC(F)(F)F)c3cc(N4CCN(Cc5cccc(S(=O)(=O)N6CCC(Nc7ncc(Cl)cn7)CC6)c5)CC4)ccc23)C(=O)N1 [Example 62, 1-(6-(4-(3-((4-((5-chloropyrimidin-2-yl)amino)piperidin-1-yl)sulfonyl)benzyl)-piperazin-1-yl)-1-(2,2,2-trifluoroethyl)-1H-indazol-3-yl)dihydropyrimidine-2,4(1H,3H)-dione] | 100 to 500 nM
5 | Cn1nc(N2CCC(=O)NC2=O)c2ccc(C3CCN(Cc4cccc(S(=O)(=O)[C@H]5CC[C@H](Nc6ncc(C(F)(F)F)cn6)CC5)c4)CC3)cc21 [Example 10, 1-(1-methyl-6-(1-(3-(((1r,4r)-4-((5-(trifluoromethyl)pyrimidin-2-yl)amino)-cyclohexyl)sulfonyl)benzyl)piperidin-4-yl)-1H-indazol-3-yl)dihydropyrimidine-2,4(1H,3H)-dione] | 500 to 2500 nM
6 | Cn1nc(N2CCC(=O)NC2=O)c2ccc(C3CCN(Cc4ccc(C5CCN(S(=O)(=O)N6CCC(Nc7ncc(Cl)cn7)CC6)CC5)cc4)CC3)cc21 [Example 139, 1-(6-(1-(4-(1-((4-((5-chloropyrimidin-2-yl)amino)piperidin-1-yl)sulfonyl)piperidin-4-yl)benzyl)piperidin-4-yl)-1-methyl-1H-indazol-3-yl)dihydropyrimidine-2,4(1H,3H)-dione] | > 2500 nM
7 | O=C1CCN(c2nn(CC(F)(F)F)c3cc(C4CCN(Cc5cccc(S(=O)(=O)N6CCC(Nc7ncc(C(F)(F)F)cn7)CC6)c5)CC4)ccc23)C(=O)N1 [Example 5, 1-(1-(2,2,2-trifluoroethyl)-6-(1-(3-((4-((5-(trifluoromethyl)pyrimidin-2-yl)amino)-piperidin-1-yl)sulfonyl)benzyl)-piperidin-4-yl)-1H-indazol-3-yl)dihydropyrimidine-2,4(1H,3H)-dione] | 100 to 500 nM
8 | Cn1nc(N2CCC(=O)NC2=O)c2cc(C3CCN(CC4CCN(c5cccc(S(=O)(=O)N6CCC(Nc7ncc(C(F)(F)F)cn7)CC6)c5)CC4)CC3)ccc21 [Example 137, 1-(1-methyl-5-(1-((1-(3-((4-((5-(trifluoro-methyl)pyrimidin-2-yl)amino)piperidin-1-yl)sulfonyl)phenyl)piperidin-4-yl)methyl)-piperidin-4-yl)-1H-indazol-3-yl)dihydropyrimidine-2,4(1H,3H)-dione] | 100 to 500 nM
9 | Cn1nc(N2CCC(=O)NC2=O)c2ccc(C3CCN(Cc4cccc(S(=O)(=O)N5CCC(Nc6ncc(F)cn6)CC5)c4)CC3)cc21 [Example 26, 1-(6-(1-(3-((4-((5-fluoropyrimidin-2-yl)amino)piperidin-1-yl)sulfonyl)benzyl)-piperidin-4-yl)-1-methyl-1H-indazol-3-yl)dihydropyrimidine-2,4(1H,3H)-dione] | > 2500 nM
10 | Cc1ncsc1-c1ccc([C@H](C)NC(=O)[C@@H]2C[C@@H](O)CN2C(=O)[C@@H](NC(=O)CC2CCN(Cc3cccc(S(=O)(=O)N4CCC(Nc5ncc(C(F)(F)F)cn5)CC4)c3)CC2)C(C)(C)C)cc1 [Example 9, (2S,4R)-1-((S)-3,3-dimethyl-2-(2-(1-(3-((4-((5-(trifluoromethyl)pyrimidin-2-yl)amino)piperidin-1-yl)sulfonyl)-benzyl)piperidin-4-yl)acetamido)butanoyl)-4-hydroxy-N-((S)-1-(4-(4-methylthiazol-5-yl)phenyl)ethyl)pyrrolidine-2-carboxamide] | 100 to 500 nM
11 | Cc1cnc(NC2CCN(S(=O)(=O)c3cccc(CN4CCC(c5ccc6c(N7CCC(=O)NC7=O)nn(C)c6c5)CC4)c3)CC2)nc1 [Example 60, 1-(1-methyl-6-(1-(3-((4-((5-methyl-pyrimidin-2-yl)amino)piperidin-1-yl)sulfonyl)benzyl)piperidin-4-yl)-1H-indazol-3-yl)dihydropyrimidine-2,4(1H,3H)-dione] | 500 to 2500 nM

Further lines, results first:

Row | IC50 | Structure (SMILES)
12 | > 2500 nM | Cn1nc(N2CCC(=O)NC2=O)c2ccc(C3CCN(CC4(C#N)CCN(c5cccc(S(=O)(=O)N6CCC(Nc7ncc(Cl)cn7)CC6)c5)CC4)CC3)cc21 [Example 164, 1-(3-((4-((5-chloropyrimidin-2-yl)amino)piperidin-1-yl)sulfonyl)phenyl)-4-((4-(3-(2,4-dioxotetrahydropyrimidin-1(2H)-yl)-1-methyl-1H-indazol-6-yl)piperidin-1-yl)methyl)piperidine-4-carbonitrile]
13 | > 2500 nM | Cn1nc(N2CCC(=O)NC2=O)c2ccc(C3CCN(CC4CCN(c5cccc(S(=O)(=O)N6CC7(CC(Nc8ncc(C(F)(F)F)cn8)C7)C6)c5)CC4)CC3)cc21 [Example 172, 1-(1-methyl-6-(1-((1-(3-((6-((5-(trifluoromethyl)pyrimidin-2-yl)amino)-2-azaspiro[3.3]heptan-2-yl)sulfonyl)phenyl)piperidin\-4-yl)methyl)piperidin-4-yl)-1H-indazol-3-yl)dihydropyrimidine-2,4(1H,3H)-dione]
14 | 100 to 500 nM | Cn1nc(N2CCC(=O)NC2=O)c2ccc(C3CCN(CC4CCN(c5cc(C#N)cc(S(=O)(=O)N6CCC(Nc7ncc(Cl)cn7)CC6)c5)CC4)CC3)cc21 [Example 160, 3-((4-((5-chloropyrimidin-2-yl)amino)piperidin-1-yl)sulfonyl)-5-(4-((4-(3-(2,4-dioxotetrahydropyrimidin-1(2H)-yl)-1-methyl-1H-indazol-6-yl)piperidin-1-yl)methyl)piperidin-1-yl)benzonitrile 2,2,2-trifluoroacetate]
15 | > 2500 nM | Cn1nc(N2CCC(=O)NC2=O)c2ccc(C3CCN(CC4CCN(c5ccc(F)c(S(=O)(=O)N6CCC(Nc7ncc(Cl)cn7)CC6)c5)CC4)CC3)cc21 [Example 189, 1-(6-(1-((1-(3-((4-((5-chloropyrimidin-2-yl)amino)piperidin-1-yl)sulfonyl)-4-fluorophenyl)piperidin-4-yl)methyl)piperidin-4-yl)-1-methyl-1H-indazol-3-yl)dihydropyrimidine-2,4(1H,3H)-dione]
16 | 100 to 500 nM | O=C1CCC(NC(=O)c2ccc(C3CCN(CC4CCN(c5cccc(S(=O)(=O)N6CCC(Nc7ncc(C(F)(F)F)cn7)CC6)c5)CC4)CC3)cn2)C(=O)N1 (stereo not drawn) [Example 225, N-(2,6-dioxopiperidin-3-yl)-5-(1-((1-(3-((4-((5-(trifluoromethyl)pyrimidin-2-yl)amino)piperidin-1-yl)sulfonyl)phenyl)piperidin-4-yl)methyl)piperidin-4-yl)picolinamide]
17 | > 2500 nM | CO[C@@H]1CN(S(=O)(=O)c2cccc(N3CCC(CN4CCC(c5ccc6c(N7CCC(=O)NC7=O)nn(C)c6c5)CC4)CC3)c2)CC[C@@H]1Nc1ncc(Cl)cn1 [Example 218, 1-(6-(1-((1-(3-(((3R,4S)-4-((5-chloropyrimidin-2-yl)amino)-3-methoxypiperidin-1-yl)sulfonyl)phenyl)piperidin-4-yl)methyl)piperidin-4-yl)-1-methyl-1H-indazol-3-yl)dihydropyrimidine-2,4(1H,3H)-dione]
18 | > 2500 nM | CC(C)Oc1cnc(NC2CCN(S(=O)(=O)c3cccc(N4CCC(CN5CCC(c6ccc7c(N8CCC(=O)NC8=O)nn(C)c7c6)CC5)CC4)c3)CC2)nc1 [Example 253, 1-(6-(1-((1-(3-((4-((5-isopropoxypyrimidin-2-yl)amino)piperidin-1-yl)sulfonyl)phenyl)piperidin-4-yl)methyl)piperidin-4-yl)-1-methyl-1H-indazol-3-yl)dihydropyrimidine-2,4(1H,3H)-dione]
19 | 100 to 500 nM | Cn1nc(N2CCC(=O)NC2=O)c2ccc(C3CCN(C[C@@H]4CCCCN4c4cccc(S(=O)(=O)N5CCC(Nc6ncc(OC(F)F)cn6)CC5)c4)CC3)cc21 [Example 261, (S)-1-(6-(1-((1-(3-((4-((5-(difluoromethoxy)pyrimidin-2-yl)amino)piperidin-1-yl)sulfonyl)phenyl)piperidin-2-yl)methyl)piperidin-4-yl)-1-methyl-1H-indazol-3-yl)dihydropyrimidine-2,4(1H,3H)-dione]
20 | 500 to 2500 nM | O=C1CCC(NC(=O)c2ccc(C3CCN(CC4CCN(c5cccc(S(=O)(=O)N6CCC(Nc7ncc(Cl)cn7)CC6)c5)CC4)CC3)cc2F)C(=O)N1 (stereo not drawn) [Example 237, 4-(1-((1-(3-((4-((5-chloropyrimidin-2-yl)amino)piperidin-1-yl)sulfonyl)phenyl)piperidin-4-yl)methyl)piperidin-4-yl)-N-(2,6-dioxopiperidin-3-yl)-2-fluorobenzamide]
21 | 100 to 500 nM | Cn1nc(N2CCC(=O)NC2=O)c2ccc(C3CCN(C[C@H]4CCCCN4c4cccc(S(=O)(=O)N5CCC(Nc6ncc(OC(F)F)cn6)CC5)c4)CC3)cc21 [Example 260, (R)-1-(6-(1-((1-(3-((4-((5-(difluoromethoxy)pyrimidin-2-yl)amino)piperidin-1-yl)sulfonyl)phenyl)piperidin-2-yl)methyl)piperidin-4-yl)-1-methyl-1H-indazol-3-yl)dihydropyrimidine-2,4(1H,3H)-dione]
